Measured values taken from patent publication US20230312473A1, “PROCESS FOR THE PREPARATION OF BIHETEROARYL COMPOUNDS AND CRYSTAL FORMS THEREOF” (Genentech, Inc., priority 2020, published 2023).

Assay: Crystallization study: crystalline form by XRPD
Assay type: physicochemical
Experimental: In Example 14, X-ray powder diffraction (“XRPD”), a sample of compound 1 was prepared in an open quartz glass capillary with a diameter of 0.9 mm (and was not further processed, such as by grinding). A Stoe high-low temperature attachment (working range −50 to 300) with a NiCr/Ni thermocouple for temperature measurement controlled the respective temperature conditions. The measurements were carried out with a rotating capillary and the following parameters. STOE STADI diffractometer; MYTHEN 1K detector; CuKα, 1.5406 Å radiation; Ge monochromator; 40 kV, 40 mA; moving scan; 1800 seconds per step; 2θ=3-42 degrees; 5° C./min ramp rate; and 5° C. temperature step.
Compound 1 was prepared from crude compound 1 according to the following procedure. Crude compound 1 (46 kg) was dissolved in 1080 kg of isopropyl acetate at 88.6° C. After cooling to 71° C., the solution was passed through a pre-washed and pre-heated charcoal filter. The charcoal filter was rinsed with 400 kg of hot isopropyl acetate. Under reduced pressure, the volume of the combined filtrates was concentrated to a total of 760 to 780 L. The resulting suspension was heated to 88° C. Isopropyl acetate was then added in portions (85 kg in total) to achieve complete dissolution at 88° C. The solution was cooled to 69° C. leading to a suspension which was then cooled to 0° C. within 190 minutes, and stirred at this temperature for 900 minutes. The product was isolated by filtration and rinsed with portions of cold isopropyl acetate (400 kg in total). After drying at […]/10 mbar for about 40 hours, 38.5 kg (approx. 84% of theoretical yield) of crystallized compound 1 was obtained.
Crystalline compound 1 was evaluated. Crystallization study procedures were done based on the solubility of compound 1 in the solvent under evaluation as follows.
The results are presented below in Table 10 where: * refers to compound 1 prepared as described above; and ** refers to compound 1 prepared as described above and further incubated at 100% relative humidity at 22° C. for 17 days.

Measured: Crystalline Form

Nc1ncc(-c2cc(N3C[C@@H]4C[C@H]3CO4)nc(N3CCC(F)(F)C3)n2)cc1OC(F)F [Compound 1, 5-(6-((1S,4S)-2-oxa-5-azabicyclo[2.2.1]heptan-5-yl)-2-(3,3-difluoropyrrolidin-1-yl)pyrimidin-4-yl)-3-(difluoromethoxy)pyridin-2-amine]
Form A: * compound 1 as prepared (crystallized from isopropyl acetate) | ** as prepared and further incubated at 100% relative humidity at 22° C. for 17 days | crystallization study solvent: 2-methyl THF | crystallization study solvent: 5% water in ethanol | crystallization study solvent: 5% water in isopropanol | crystallization study solvent: 5% water in methanol | crystallization study solvent: 5% water in propanol | crystallization study solvent: 15% water in THF | crystallization study solvent: 15% water in acetone | crystallization study solvent: 15% water in ethanol | crystallization study solvent: 15% water in isopropanol | crystallization study solvent: 15% water in methanol | crystallization study solvent: 15% water in propanol | crystallization study solvent: 20% water in acetonitrile | crystallization study solvent: 50% water in acetonitrile | crystallization study solvent: 50% water in ethanol | crystallization study solvent: 50% water in isopropanol | crystallization study solvent: 50% water in methanol | crystallization study solvent: 50% water in propanol | crystallization study solvent: 80% water in acetonitrile | crystallization study solvent: Acetic acid | crystallization study solvent: Acetone | crystallization study solvent: Acetonitrile | crystallization study solvent: Butanol | crystallization study solvent: Chloroform | crystallization study solvent: DMA | crystallization study solvent: DMF | crystallization study solvent: DMSO | crystallization study solvent: Dichloromethane | crystallization study solvent: Diisopropylamine | crystallization study solvent: Dimethyl carbonate | crystallization study solvent: Dioxane | crystallization study solvent: Ethanol | crystallization study solvent: Ethyl acetate | crystallization study solvent: Isopropanol | crystallization study solvent: Isopropyl acetate | crystallization study solvent: MEK | crystallization study solvent: MIBK | crystallization study solvent: MTBE | crystallization study solvent: Methanol | crystallization study solvent: NMP | crystallization study solvent: Nitromethane | crystallization study solvent: Propanol | crystallization study solvent: THF | crystallization study solvent: Toluene | crystallization study solvent: Water | crystallization study solvent: i-Butanol | crystallization study solvent: n-Heptane | crystallization study solvent: s-butanol
